Read-outs that look alike come from different tables or passages of the source.
Key:
human MC5R (hMC5R) = target: T1, human MC5R (hMC5R) (Homo sapiens, UniProt P33032); experiment: Human MC5R radioligand binding assay (membranes, [125I] NDP-MSH displacement)
T1 construct: purchased Perkin Elmer RBXMC5M400UA
How it was run: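 Displacement of [125I]NDP-MSH (radioiodinated in house, HPLC-purified) from hMC5R membranes by test compound measured after 1 hr incubation at 37° C.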

hMC3R = hMC3R (Homo sapiens, UniProt P41968); experiment: Human MC3R radioligand binding assay; conditions: hMCR binding selectivity, [125I] NDP-MSH, membranes
Experimental: (§1) • Na^125I (0.5 mCi, 17.4 Ci/mg) was added to 50 μL sodium phosphate (50 mM, pH7.4) in an eppendorf tube precoated with IODOGEN. After incubation for 10 mins the phosphate buffer containing the iodine was added to NDP-MSH (10 ul at 1 mg/mL) in a separate eppendorf tube. This was incubated for a further 10 mins. The iodinated NDP-MSH was purified by HPLC on a Zorbax SB 300 column using solvent A: 0.05% TFA and solvent B: 90% acetonitrile 0.045% TFA with a linear gradient, 0-67% B over 60 mins. […] Resuspended membranes were kept on ice until they were added to the wells of the plate. Binding Protocol for 400 microassays per vial: • Assays were performed in 96 well polypropylene plates. […] This was incubated for 1 hr at 37° C.
(§2) Radioligand binding assays were carried out using commercial or in-house prepared hMC1R, hMC3R and hMC4R membranes and [125I]
(§3) The homogenisation and ice incubation was repeated three times. The mixture was then centrifuged at 1260×g for 5 mins. […] This was centrifuged at 30,000×g for 90 mins at 4° C.

human MC5R [1] = target: T2, human MC5R (Homo sapiens, UniProt P33032); experiment: cAMP stimulation assay, agonism, HEK 293 cells expressing human MC5R; type: cell-based
T2 construct: host or cells: HEK 293
Experimental: (§4) The mammalian cell line, human embryonic kidney cells (HEK 293), were maintained in Dulbeccos Modified Eagle's medium (DMEM) with 5% fetal bovine serum (BSA), L-glutamine, high glucose and antibiotics/antimycotics. On the day prior to transfection, cells were passaged using trypsin/EDTA and seeded into 75 cm^2 flasks so that they would be approximately 90% confluent the next day. The next day, the cell media was replaced with fresh antibiotic/antimycotic-containing DMEM. Approximately 100 μl of the transfection lipid Turbofectin 8.0 (Origene Technologies, MD, USA), was diluted in 1.0 mL of serum and antibiotic/antimycotic-free OptiMEM in a sterile 15 mL tube and incubated for 5 mins at room temperature. […]
(§5) Basal level (of cAMP) control wells contained stimulation buffer only (no agonist or compounds). […] After incubation, 10 μl of lysis buffer (10% Tween 20, 1 M HEPES, 0.1% BSA, protease inhibitors, ddH2O) was added to all wells to be measured. […] 5 μl of diluted acceptor beads were added to each well to be measured, then the plate was incubated for 30 mins at room temperature, in the dark, with gentle shaking. […] Plates were read on an Envision plate reader (Perkin Elmer) after 1 hr and ˜16hrs incubation. cAMP concentration in the cells was determined by the use of a ‘standard curve’ generated from the output of known cAMP concentrations as described below. […]

human MC5R [2] = target: T2, human MC5R; experiment: cAMP assay, antagonism of alpha-MSH, HEK 293 cells expressing human MC5R; type: cell-based; conditions: antagonism of 10^−6 M alpha-MSH
Experimental: as §4, §5

mouse MC5R (membrane) = target: T3, mouse MC5R (membrane) (Mus musculus, UniProt P41149); experiment: MC5R radioligand binding, mouse MC5R membranes
T3 construct: purchased Euroscreen

[3] = target: T4, rhesus monkey MC5R (membranes) (Macaca mulatta, UniProt A0A5F8AEA9); experiment: MC5R radioligand binding, rhesus monkey MC5R membranes
T4 construct: expressed in transfected cells

[4] = target: T5, rhesus monkey MC5R (whole cells) (Macaca mulatta, UniProt A0A5F8AEA9); experiment: MC5R radioligand binding, rhesus monkey MC5R whole cells
T5 construct: expressed in transfected cells

hMC1R = hMC1R (Homo sapiens, UniProt Q01726); experiment: Human MC1R radioligand binding assay; conditions: hMCR binding selectivity, [125I] NDP-MSH, membranes
Experimental: as §1, §2, §3

hMC4R = hMC4R (Homo sapiens, UniProt P32245); experiment: Human MC4R radioligand binding assay; conditions: hMCR binding selectivity, [125I] NDP-MSH, membranes
Experimental: as §1, §2, §3

sebum excretion = conditions: oral, after 8-12 weeks of therapy; cited from earlier work

hMC4R, sequence (P32245 whole entry): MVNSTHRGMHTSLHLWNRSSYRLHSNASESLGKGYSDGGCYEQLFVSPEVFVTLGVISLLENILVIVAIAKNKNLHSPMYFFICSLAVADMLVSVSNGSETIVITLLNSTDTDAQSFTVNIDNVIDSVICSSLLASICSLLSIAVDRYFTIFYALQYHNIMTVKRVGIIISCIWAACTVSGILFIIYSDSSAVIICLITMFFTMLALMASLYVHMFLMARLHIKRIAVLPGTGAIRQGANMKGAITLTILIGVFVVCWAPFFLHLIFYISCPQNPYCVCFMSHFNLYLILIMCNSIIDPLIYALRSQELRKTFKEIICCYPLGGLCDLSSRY
hMC1R, sequence (Q01726 whole entry): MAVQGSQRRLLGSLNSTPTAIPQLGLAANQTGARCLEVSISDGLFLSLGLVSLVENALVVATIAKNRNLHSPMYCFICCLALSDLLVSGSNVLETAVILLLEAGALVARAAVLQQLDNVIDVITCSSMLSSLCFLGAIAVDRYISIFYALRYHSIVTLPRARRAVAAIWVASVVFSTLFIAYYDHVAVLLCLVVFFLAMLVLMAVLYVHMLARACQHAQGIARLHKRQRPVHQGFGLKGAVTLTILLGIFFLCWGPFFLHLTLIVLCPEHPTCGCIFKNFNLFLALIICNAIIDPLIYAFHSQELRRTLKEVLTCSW
T2 sequence (P33032 whole entry): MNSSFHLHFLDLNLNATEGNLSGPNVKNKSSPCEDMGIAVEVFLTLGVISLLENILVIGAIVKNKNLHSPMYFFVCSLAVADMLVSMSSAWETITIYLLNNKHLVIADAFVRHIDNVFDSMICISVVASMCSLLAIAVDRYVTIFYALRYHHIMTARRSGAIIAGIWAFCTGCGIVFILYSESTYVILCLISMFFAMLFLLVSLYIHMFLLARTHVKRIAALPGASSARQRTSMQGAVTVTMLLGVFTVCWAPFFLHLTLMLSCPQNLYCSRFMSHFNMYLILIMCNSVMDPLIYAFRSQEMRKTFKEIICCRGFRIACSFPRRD
T1 sequence (P33032 whole entry): as above
hMC3R, sequence (P41968 whole entry): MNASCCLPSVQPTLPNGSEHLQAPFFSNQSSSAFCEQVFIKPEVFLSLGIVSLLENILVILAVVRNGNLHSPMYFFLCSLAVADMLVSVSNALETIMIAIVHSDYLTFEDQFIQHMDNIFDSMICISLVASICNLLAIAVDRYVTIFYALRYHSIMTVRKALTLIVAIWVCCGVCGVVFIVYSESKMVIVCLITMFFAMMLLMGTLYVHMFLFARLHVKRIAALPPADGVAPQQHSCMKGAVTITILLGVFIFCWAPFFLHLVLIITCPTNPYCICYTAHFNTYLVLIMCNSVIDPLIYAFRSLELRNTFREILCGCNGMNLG
T5 sequence (A0A5F8AEA9 1-325): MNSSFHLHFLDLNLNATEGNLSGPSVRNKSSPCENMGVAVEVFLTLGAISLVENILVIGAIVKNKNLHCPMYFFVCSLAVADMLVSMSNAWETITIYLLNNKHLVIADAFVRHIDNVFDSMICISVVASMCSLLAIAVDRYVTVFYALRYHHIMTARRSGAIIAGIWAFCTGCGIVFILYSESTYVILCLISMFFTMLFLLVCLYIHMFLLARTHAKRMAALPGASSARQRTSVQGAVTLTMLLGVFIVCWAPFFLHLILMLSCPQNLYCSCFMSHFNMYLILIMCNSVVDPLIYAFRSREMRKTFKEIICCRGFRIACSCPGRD
T4 sequence (A0A5F8AEA9 1-325): as above
T3 sequence (P41149 whole entry): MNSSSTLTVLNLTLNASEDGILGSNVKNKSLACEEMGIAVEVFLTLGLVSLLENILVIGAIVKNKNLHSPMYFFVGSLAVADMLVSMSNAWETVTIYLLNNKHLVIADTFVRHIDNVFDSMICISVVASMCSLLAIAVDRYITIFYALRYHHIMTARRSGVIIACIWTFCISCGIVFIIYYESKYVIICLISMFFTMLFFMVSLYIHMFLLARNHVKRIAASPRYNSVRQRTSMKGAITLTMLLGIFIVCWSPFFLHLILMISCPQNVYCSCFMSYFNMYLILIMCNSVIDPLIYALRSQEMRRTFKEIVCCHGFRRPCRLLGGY

Q: Which IC50 (human MC5R (hMC5R); hMC5R binding, tested as trifluoroacetate or hydrochloride salts, or free bases, read-out: MC5R radioligand IC50) does the source give for `CCC(CC)CN1CC[C@@H](CNC(=O)/C=C/c2ccc(Cl)cc2)N[C@@H](CCN2CCCCC2)C1=O` [Compound 331, (E)-3-(4-chlorophenyl)-N-(((3S,5S)-1-(2-ethylbutyl)-2-oxo-3-(2-(piperidin-1-yl)ethyl)-1,4-diazepan-5-yl)methyl)acrylamide] here?
A: < 1 µM

Q: What about the IC50 (human MC5R (hMC5R); hMCR binding selectivity, [125I] NDP-MSH, membranes, read-out: human MC5R IC50) of the same compound?
A: 0.15 µM

Q: What about the IC50 (hMC3R) of the same compound?
A: 1.83 µM

Q: And the EC50 (human MC5R [1])?
A: > 10 µM

Q: And the IC50 (human MC5R [2])?
A: 0.094 µM

Q: With `N=C(N)NCCC[C@@H]1N[C@H](CNC(=O)c2ccc3ccccc3c2)CCN(CC(c2ccccc2)c2ccccc2)C1=O` [Compound 105, N-(((3S,5S)-1-(2,2-diphenylethyl)-3-(3-guanidinopropyl)-2-oxo-1,4-diazepan-5-yl)methyl)-2-naphthamide] as the compound, how does the IC50 (mouse MC5R (membrane)) read?
A: 4 µM

Q: And the IC50 [3]?
A: 6.03 µM

Q: What about the IC50 [4] of the same compound?
A: 3 µM

Q: What about the IC50 (hMC1R) of the same compound?
A: 6.66 µM

Q: And the IC50 (hMC4R)?
A: 3.28 µM

Q: With `CC1=C(/C=C/C(C)=C/C=C/C(C)=C\C(=O)O)C(C)(C)CCC1` [isotretinoin] as the compound, how does the “reduction of sebum excretion” value (sebum excretion) read?
A: up to 90%

Q: For `O=C(/C=C/c1ccc(Cl)cc1)NC[C@@H]1CCN(CC(c2ccccc2)c2ccccc2)C(=O)[C@H](CCN2CCCCC2)N1` [Compound 33, (E)-3-(4-chlorophenyl)-N-(((3S,5S)-1-(2,2-diphenylethyl)-2-oxo-3-(2-(piperidin-1-yl)ethyl)-1,4-diazepan-5-yl)methyl)acrylamide], which IC50 (hMC1R) is on record?
A: 2.85 µM

Q: What about the IC50 (hMC3R) of the same compound?
A: 1.5 µM

Q: And the IC50 (hMC4R)?
A: 6.06 µM
